In ChEMBL document CHEMBL1127924, “Synthesis and structure - anti-tumor-promoting activity relationship of monogalactosyl diacylglycerols” (1994):

How the values were obtained:
Human gammaherpesvirus 4 [1] = assay: Inhibitory activity against TPA-induced Epstein-Barr virus early antigen (EBV-EA) activation at a concentration of 1000 mol ratio/TPA; type: functional
Human gammaherpesvirus 4 [2] = assay: Inhibitory activity against TPA-induced Epstein-Barr virus early antigen (EBV-EA) activation at a concentration of 500 mol ratio/TPA; type: functional; set-up: scale not given: the % may be the effect or the level left
Human gammaherpesvirus 4 [3] = assay: Inhibitory activity against TPA-induced Epstein-Barr virus early antigen (EBV-EA) activation at a concentration of 10 mol ratio/TPA; values are per cent of control
Human gammaherpesvirus 4 [4] = assay: Inhibitory activity against TPA-induced Epstein-Barr virus early antigen (EBV-EA) activation at a concentration of 100 mol ratio/TPA; values are per cent of control

Structure (SMILES) | EBV-EA activation (% of control) (Human gammaherpesvirus 4 [1]) [%] | Control (Human gammaherpesvirus 4 [2]) [%] | EBV-EA activation (% of control) (Human gammaherpesvirus 4 [3]) [%] | EBV-EA activation (% of control) (Human gammaherpesvirus 4 [4]) [%]
CCCCC/C=C/C/C=C/CCCCCCCC(=O)O[C@H](COC(=O)CCCCCCCCCCCCC)CO[C@@H]1O[C@H](CO)[C@H](O)[C@H](O)[C@H]1O | 17.1 | 39.6 | 100 | 88.2
CCCCCCCCCCCCCC(=O)OC[C@H](CO[C@@H]1O[C@H](CO)[C@H](O)[C@H](O)[C@H]1O)OC(=O)CCCCCCCCCCCCC | 0 | 15.4 | 100 | 88.2
CCCCCCCCC/C=C/C=C/C=C/C=C/C=C/C=C/C(=O)OC[C@H](CO[C@@H]1O[C@H](CO)[C@H](O)[C@H](O)[C@H]1O)OC(=O)CCCCCCCCCCCCC | 13.8 | 29.7 | 100 | 68.9
CCCCCCCCC/C=C/C=C/C=C/C=C/C=C/C(=O)OC[C@H](CO[C@@H]1O[C@H](CO)[C@H](O)[C@H](O)[C@H]1O)OC(=O)/C=C/C=C/C=C/C=C/C=C/CCCCCCCCC | 0 | 54.3 | 100 | 89
CCCCCCCC/C=C/CCCCCCCC(=O)OC[C@H](CO[C@@H]1O[C@H](CO)[C@H](O)[C@H](O)[C@H]1O)OC(=O)/C=C/C=C/C=C/C=C/C=C/CCCCCCCCC | 0 | 0 | 81.7 | 53.6
CCCCC/C=C/C/C=C/CCCCCCCC(=O)O[C@H](COC(=O)CCCCCCC/C=C/CCCCCC)CO[C@@H]1O[C@H](CO)[C@H](O)[C@H](O)[C@H]1O | 53.3 | 74.6 | 100 | 100
CCCCCCCC/C=C/CCCCCCCC(=O)OC[C@H](CO[C@@H]1O[C@H](CO)[C@H](O)[C@H](O)[C@H]1O)OC(=O)/C=C/C=C/C=C/C=C/C=C/C=C/CCCCCCCCC | 0 | 26.4 | 88.4 | 68.1
CCCCCCCCC/C=C/C=C/C=C/C=C/C=C/C(=O)O[C@H](COC(=O)CCCCCCCCCCCCC)CO[C@@H]1O[C@H](CO)[C@H](O)[C@H](O)[C@H]1O | 15.8 | 30.6 | 90.7 | 72.8
CC/C=C/C/C=C/C/C=C/CCCCCCCC(=O)O[C@H](COC(=O)CCCCCCC/C=C/C/C=C/CCCCC)CO[C@@H]1O[C@H](CO)[C@H](O)[C@H](O)[C@H]1O | 8.7 | 22.2 | 84.9 | 64.5
CC/C=C/C/C=C/C/C=C/CCCCCCCC(=O)O[C@H](COC(=O)CCCCCCCCCCCCCCC)CO[C@@H]1O[C@H](CO)[C@H](O)[C@H](O)[C@H]1O | 19.4 | 57.6 | 100 | 92.6
CCCCCCCCCCCCCC(=O)OC[C@@H](CO[C@@H]1O[C@H](CO)[C@H](O)[C@H](O)[C@H]1O)OC(C)=O | 17.4 | 36.8 | 77.4 | 52.9
CCC=CCC=CCC=CCCCCCCCC(=O)O[C@@H](COC(=O)CCCCCCCCCCCCC)CO[C@@H]1O[C@H](CO)[C@H](O)[C@H](O)[C@H]1O | 0 | 20.2 | 100 | 73.9
CCCCCCCCC/C=C/C=C/C=C/C=C/C=C/C(=O)O[C@@H](COC(=O)CCCCCCCCCCCCC)CO[C@@H]1O[C@H](CO)[C@H](O)[C@H](O)[C@H]1O | 26.1 | 52.8 | 100 | 84.1
CCCCCCCC/C=C/CCCCCCCC(=O)O[C@H](COC(=O)C=C/C=C/C=C/C=C/C=C/C=C/CCCCCCCCC)CO[C@@H]1O[C@H](CO)[C@H](O)[C@H](O)[C@H]1O | 0 | 12.8 | 83.2 | 62.9
CCCCCCCC/C=C/CCCCCCCC(=O)O[C@H](COC(=O)CCCCCCCCCCCCC)CO[C@@H]1O[C@H](CO)[C@H](O)[C@H](O)[C@H]1O | 0 | 16.9 | 100 | 80.4
CCCCCCCCC/C=C/C=C/C=C/C=C/C=C/C=C/C(=O)OC[C@H](CO[C@@H]1O[C@H](CO)[C@H](O)[C@H](O)[C@H]1O)OC(=O)/C=C/C=C/C=C/C=C/C=C/C=C/CCCCCCCCC | 0 | 26.3 | 86.8 | 64.8
OC[C@@H](O)CO[C@@H]1O[C@H](CO)[C@H](O)[C@H](O)[C@H]1O | 0 | 15.8 | 100 | 66.7
CCCCCCCC/C=C/CCCCCCCC(=O)OCC(O)CO[C@@H]1O[C@H](CO)[C@H](O)[C@H](O)[C@H]1O (single isomer, unassigned) | 0 | 0 | 100 | 84.7
CCCCCCCCCCCCCC(=O)OCC(O)CO[C@@H]1O[C@H](CO)[C@H](O)[C@H](O)[C@H]1O (single isomer, unassigned) | 0 | 22.5 | 90.7 | 65.3
CCCCC/C=C/C/C=C/CCCCCCCC(=O)OCC(O)CO[C@@H]1O[C@H](CO)[C@H](O)[C@H](O)[C@H]1O (single isomer, unassigned) | 0 | 24.1 | 100 | 79.8
CCCCCCCC/C=C/CCCCCCCC(=O)OCC(CO[C@@H]1O[C@H](CO)[C@H](O)[C@H](O)[C@H]1O)OC(=O)CCCCCCC/C=C/CCCCCCCC (single isomer, unassigned) | 0 | 11 | 61 | 21.3
CCCCCCCCCC=CC=CC=CC=CC=CC=CC(=O)OC(COC(=O)CCCCCCCCCCCCC)CO[C@@H]1O[C@H](CO)[C@H](O)[C@H](O)[C@H]1O (single isomer, unassigned) | 0 | 64.7 | 100 | 88.3
CCCCCCCCC=CCCCCCCCC(=O)OC(COC(=O)C=CC=CC=CC=CC=CCCCCCCCCC)CO[C@@H]1O[C@H](CO)[C@H](O)[C@H](O)[C@H]1O (single isomer, unassigned) | 0 | 18.5 | 93.2 | 69.6
